Measured values published in PubChem BioAssay (NCI).
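Tested at 5 concentrations; 48 h exposure; 96-well plates; endpoints linearly interpolated, else capped at highest concentration. Here, GI50 denotes the concentration required for 50% inhibition of growth. The concentration for full growth arrest is given as TGI.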

Experiments:
Test in all cases: NCI-60 cell line screen, 48 h
[1] = test system: A549 NSCLC
[2] = test system: RXF 393 renal
[3] = test system: PC-3 prostate
[4] = test system: LOX IMVI melanoma
[5] = test system: CAKI-1 renal
[6] = test system: SN12C renal
[7] = test system: UACC-62 melanoma
[8] = test system: OVCAR-4 ovarian
[9] = test system: HOP-92 NSCLC
[10] = test system: RPMI-8226 leukemia
[11] = test system: HOP-62 NSCLC
[12] = test system: TK-10 renal
[13] = test system: NCI-H23 lung
[14] = test system: HT29 colon
[15] = test system: COLO 205 colon
[16] = test system: SK-OV-3 ovarian
[17] = test system: MCF7 breast
[18] = test system: SF-268 CNS
[19] = test system: KM12 colon
[20] = test system: HCT-116 colon
[21] = test system: SF-539 CNS
[22] = test system: OVCAR-3 ovarian
[23] = test system: DU-145 prostate
[24] = test system: OVCAR-8 ovarian
[25] = test system: BT-549 breast
[26] = test system: NCI-H226 lung
[27] = test system: OVCAR-5 ovarian
[28] = test system: SR leukemia
[29] = test system: MDA-MB-468 breast
[30] = test system: EKVX NSCLC
[31] = test system: 786-0 renal
[32] = test system: HL-60(TB) leukemia
[33] = test system: K-562 leukemia
[34] = test system: CCRF-CEM leukemia
[35] = test system: U251 CNS
[36] = test system: UO-31 renal
[37] = test system: SK-MEL-28 melanoma
[38] = test system: NCI-H522 lung
[39] = test system: SK-MEL-2 melanoma
[40] = test system: MDA-MB-231 breast
[41] = test system: HCT-15 colon
[42] = test system: ACHN renal
[43] = test system: M14 melanoma
[44] = test system: SF-295 CNS
[45] = test system: SW-620 colon
[46] = test system: NCI-H460 lung
[47] = test system: T-47D breast
[48] = test system: SNB-19 CNS
[49] = test system: IGROV1 ovarian
[50] = test system: MALME-3M melanoma
[51] = test system: MDA-MB-435
[52] = test system: SNB-75 CNS
[53] = test system: MOLT-4 leukemia
[54] = test system: HS 578T breast
[55] = test system: SK-MEL-5 melanoma
[56] = test system: HCC-2998 colon
[57] = test system: UACC-257 melanoma
[58] = test system: A498 renal

## O=C(O)c1ccc(-c2ccc(/C=N/NC(=O)c3[nH]c4ccc(Br)cc4c3-c3ccccc3)o2)cc1
[1]
  GI50: 32.3 µM
  TGI: > 100 µM
[2]
  GI50: 11.3 µM
  TGI: 95.1 µM
[3]
  GI50: 25.1 µM
  TGI: > 100 µM
[4]
  GI50: 20 µM
  TGI: > 100 µM
[5]
  GI50: 22 µM
  TGI: 98.7 µM
[6]
  GI50: 24.8 µM
  TGI: 80.8 µM
[7]
  GI50: 4.98 µM
  TGI: 25.2 µM
[8]
  GI50: 21.1 µM
  TGI: > 100 µM
[9]
  GI50: 10.6 µM
  TGI: 42.2 µM
[10]
  GI50: 25.9 µM
  TGI: > 100 µM
[11]
  GI50: 29.5 µM
  TGI: > 100 µM
[12]
  GI50: 38.7 µM
  TGI: > 100 µM
[13]
  GI50: 34.1 µM
  TGI: > 100 µM
[14]
  GI50: 21.9 µM
  TGI: 54.7 µM
[15]
  GI50: 26.4 µM
  TGI: 83.8 µM
[16]
  GI50: 28.3 µM
  TGI: 76.7 µM
[17]
  GI50: 28.3 µM
  TGI: > 100 µM
[18]
  GI50: 20.8 µM
  TGI: > 100 µM
[19]
  GI50: 22.4 µM
  TGI: 66.2 µM
[20]
  GI50: 27.7 µM
  TGI: > 100 µM
[21]
  GI50: 14.7 µM
  TGI: 36.7 µM
[22]
  GI50: 12.2 µM
  TGI: 43.1 µM
[23]
  GI50: 36.4 µM
  TGI: > 100 µM
[24]
  GI50: 20.7 µM
  TGI: 63.4 µM
[25]
  GI50: 20.1 µM
  TGI: 51.7 µM
[26]
  GI50: 34.5 µM
  TGI: > 100 µM
[27]
  GI50: 36.5 µM
  TGI: > 100 µM
[28]
  GI50: 11.8 µM
  TGI: 45.6 µM
[29]
  GI50: 19.5 µM
  TGI: 79.6 µM
[30]
  GI50: 28.8 µM
  TGI: > 100 µM
[31]
  GI50: 24.2 µM
  TGI: > 100 µM
[32]
  GI50: 12.4 µM
  TGI: 36.1 µM
[33]
  GI50: 20.8 µM
  TGI: 98.4 µM
[34]
  GI50: 19.3 µM
  TGI: > 100 µM
[35]
  GI50: 20 µM
  TGI: 83.1 µM
[36]
  GI50: 25 µM
  TGI: > 100 µM
[37]
  GI50: 15.8 µM
  TGI: > 100 µM
[38]
  GI50: 7.64 µM
  TGI: 34.4 µM
[39]
  GI50: 14.6 µM
  TGI: 37.3 µM
[40]
  GI50: 27.9 µM
  TGI: > 100 µM
[41]
  GI50: 18.6 µM
  TGI: > 100 µM
[42]
  GI50: 29.3 µM
  TGI: > 100 µM
[43]
  GI50: 29.8 µM
  TGI: > 100 µM
[44]
  GI50: 20.4 µM
  TGI: 55.8 µM
[45]
  GI50: 25.4 µM
  TGI: > 100 µM
[46]
  GI50: 21.3 µM
  TGI: 72.8 µM
[47]
  GI50: 30.9 µM
  TGI: > 100 µM
[48]
  GI50: 21.6 µM
  TGI: > 100 µM
[49]
  GI50: 25.3 µM
  TGI: 86.1 µM
[50]
  GI50: 19.1 µM
  TGI: > 100 µM
[51]
  GI50: 12.5 µM
  TGI: 41.1 µM
[52]
  GI50: 4.02 µM
  TGI: 33.3 µM
[53]
  GI50: 20.3 µM
  TGI: 96.6 µM
[54]
  GI50: 3.87 µM
  TGI: 72 µM
[55]
  GI50: 15.7 µM
  TGI: 33 µM
[56]
  GI50: 16.1 µM
  TGI: 30.7 µM
[57]
  GI50: 24.5 µM
  TGI: > 100 µM
[58]
  GI50: 23.6 µM
  TGI: 85.7 µM
